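Values below derive from 48-hour exposures of cells grown in 96-well plates, with endpoints linearly interpolated between the two concentrations bracketing the appropriate inhibition level. GI50 marks 50% less growth.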 The source made the active and inactive calls. Rule as the data show it: active = GI50 up to about 1.1 µM and inactive = higher.
Experiments:
Assay in all cases: growth of human tumour cells (NCI), 48 h
NCI/ADR-RES = tested on: NCI/ADR-RES
HCT-116 = tested on: HCT-116
A549 = tested on: A549
HCT-15 = tested on: HCT-15
COLO 205 = tested on: COLO 205
UACC-257 = tested on: UACC-257
SF-268 = tested on: SF-268
NCI-H23 = tested on: NCI-H23
PC-3 = tested on: PC-3
RXF 393 = tested on: RXF 393
MOLT-4 = tested on: MOLT-4
BT-549 = tested on: BT-549
OVCAR-5 = tested on: OVCAR-5
U-251 = tested on: U-251
SF-539 = tested on: SF-539
Hs-578T = tested on: Hs-578T
ACHN = tested on: ACHN
SK-OV-3 = tested on: SK-OV-3
KM12 = tested on: KM12
MCF7 = tested on: MCF7
HOP-62 = tested on: HOP-62
NCI-H226 = tested on: NCI-H226
TK-10 = tested on: TK-10
MDA-MB-231 = tested on: MDA-MB-231
OVCAR-3 = tested on: OVCAR-3
SK-MEL-28 = tested on: SK-MEL-28
DU-145 = tested on: DU-145
M14 = tested on: M14
LOX IMVI = tested on: LOX IMVI
SNB-75 = tested on: SNB-75
SK-MEL-5 = tested on: SK-MEL-5
SK-MEL-2 = tested on: SK-MEL-2
CAKI-1 = tested on: CAKI-1
IGROV-1 = tested on: IGROV-1
SF-295 = tested on: SF-295
HOP-92 = tested on: HOP-92
HT-29 = tested on: HT-29
HCC 2998 = tested on: HCC 2998
OVCAR-4 = tested on: OVCAR-4
OVCAR-8 = tested on: OVCAR-8
SN12C = tested on: SN12C
786-0 = tested on: 786-0
CCRF-CEM = tested on: CCRF-CEM
UO-31 = tested on: UO-31
SNB-19 = tested on: SNB-19
MDA-MB-435 = tested on: MDA-MB-435
NCI-H522 = tested on: NCI-H522
SW-620 = tested on: SW-620
EKVX = tested on: EKVX
NCI-H460 = tested on: NCI-H460
HL-60 = tested on: HL-60
UACC-62 = tested on: UACC-62

In the case of `COc1cccc(/C=C2/Sc3scc(-c4ccccc4)[n+]3C2=O)c1O`, the GI50 (NCI/ADR-RES) is reported as 17.7 µM (inactive), the GI50 (HCT-116) is reported as 14.9 µM (inactive) and the GI50 (A549) is reported as 38.8 µM (inactive). For the same compound, the GI50 (HCT-15) was 13.6 µM, the GI50 (COLO 205) was 31.8 µM (inactive) and the GI50 (UACC-257) was 19.7 µM (inactive). For the same compound, the GI50 (SF-268) was 41.2 µM (inactive), the GI50 (NCI-H23) was 17.3 µM (inactive) and the GI50 (PC-3) was 32.1 µM (inactive). The GI50 (RXF 393) was 14.4 µM (inactive), the GI50 (MOLT-4) was 16.1 µM (inactive) and the GI50 (BT-549) was 21.7 µM (inactive). For the same compound, the GI50 (OVCAR-5) was 36.7 µM (inactive), the GI50 (U-251) was 19.6 µM (inactive) and the GI50 (SF-539) was 16.1 µM (inactive). For the same compound, the GI50 (Hs-578T) was 42.7 µM (inactive), the GI50 (ACHN) was 18.4 µM (inactive) and the GI50 (SK-OV-3) was 22.3 µM (inactive). For the same compound, the GI50 (KM12) was 18.6 µM (inactive), the GI50 (MCF7) was 15.5 µM (inactive) and the GI50 (HOP-62) was 23.8 µM (inactive). For the same compound, the GI50 (NCI-H226) was 19.4 µM (inactive), the GI50 (TK-10) was 31 µM (inactive) and the GI50 (MDA-MB-231) was 23.5 µM (inactive). For the same compound, the GI50 (OVCAR-3) was 26.6 µM (inactive), the GI50 (SK-MEL-28) was 17.3 µM (inactive) and the GI50 (DU-145) was 22.1 µM (inactive). For the same compound, the GI50 (M14) was 26 µM (inactive), the GI50 (LOX IMVI) was 16.2 µM (inactive) and the GI50 (SNB-75) was 28.6 µM (inactive). For the same compound, the GI50 (SK-MEL-5) was 14.4 µM (inactive), the GI50 (SK-MEL-2) was 23.3 µM (inactive) and the GI50 (CAKI-1) was 21.3 µM (inactive). For the same compound, the GI50 (IGROV-1) was 15.2 µM (inactive), the GI50 (SF-295) was 37.3 µM (inactive) and the GI50 (HOP-92) was 15.3 µM (inactive). For the same compound, the GI50 (HT-29) was 20.8 µM (inactive), the GI50 (HCC 2998) was 16.6 µM (inactive) and the GI50 (OVCAR-4) was 29.6 µM (inactive). For the same compound, the GI50 (OVCAR-8) was 17.5 µM (inactive), the GI50 (SN12C) was 17.9 µM (inactive) and the GI50 (786-0) was 15.2 µM (inactive). For the same compound, the GI50 (CCRF-CEM) was 4.9 µM (inactive), the GI50 (UO-31) was 13.3 µM (inactive) and the GI50 (SNB-19) was 21.3 µM (inactive). For the same compound, the GI50 (MDA-MB-435) was 8.65 µM (inactive), the GI50 (NCI-H522) was 18.8 µM (inactive) and the GI50 (SW-620) was 18.1 µM (inactive). For the same compound, the GI50 (EKVX) was 19.2 µM (inactive), the GI50 (NCI-H460) was 17.3 µM (inactive) and the GI50 (HL-60) was 11.9 µM (inactive). For the same compound, the GI50 (UACC-62) was 15.5 µM (inactive).
